# Measured values: patent US5512558A, “Nor-bile acid derivatives, processes for their preparation and the use of these compounds as medicaments” (Hoechst Aktiengesellschaft, priority 1993, dated 1996)
# Target: T1, Na+-dependent bile acid transportation system (brush border membrane vesicles of the ileum) (Oryctolagus cuniculus, UniProt Q28727)
# T1 construct: Brush border membrane vesicles were prepared from the intestinal cells of the small intestine; from tissue; host or cells: brush border membrane vesicles from the terminal 7/10 of the small intestine (ileum) of male New Zealand rabbits
# T1 sequence (Q28727 1-347): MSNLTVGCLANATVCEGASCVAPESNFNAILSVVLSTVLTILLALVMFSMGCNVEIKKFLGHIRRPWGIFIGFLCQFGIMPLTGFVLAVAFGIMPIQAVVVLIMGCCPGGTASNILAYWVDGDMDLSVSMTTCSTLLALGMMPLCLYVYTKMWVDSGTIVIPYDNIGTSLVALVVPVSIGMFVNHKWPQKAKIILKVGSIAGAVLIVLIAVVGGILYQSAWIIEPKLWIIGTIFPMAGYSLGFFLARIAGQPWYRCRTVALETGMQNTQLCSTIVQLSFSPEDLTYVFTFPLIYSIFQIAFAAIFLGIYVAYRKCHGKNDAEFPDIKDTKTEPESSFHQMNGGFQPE
# Test: Inhibition of [3H]-taurocholate uptake in brush border membrane vesicles of the ileum of rabbits
# Format: biochemical
# Settings: Na+-dependent part of [3H]-taurocholate uptake (difference Na-T-B minus K-T-B), rabbit ileal brush border membrane vesicles
# Experimental: The compounds according to the invention were tested biologically by determination of the inhibition of ^3 H!-taurocholate uptake in the brush border membrane vesicle of the ileum of rabbits. The inhibition test was carried out as follows:
# 1. Preparation of brush border membrane vesicles from the ileum of rabbits
# Brush border membrane vesicles were prepared from the intestinal cells of the small intestine by the so-called Mg^2+ precipitation method. Male New Zealand rabbits (2 to 2.5 kg body weight) were sacrificed by intravenous injection of 0.5 ml of an aqueous solution of 2.5 mg of tetracaine HCl, 100 T 61^R and 25 mg of mebezonium iodide. The small intestine was removed and rinsed with ice-cold physiological saline solution. The terminal 7/10 of the small intestine (measured in the oral-rectal direction, i.e. the terminal ileum, which contains the active Na^+ -dependent bile acid transportation system) was used for preparation of the brush border membrane vesicles. The intestines were frozen in plastic bags under nitrogen at -80° C. For preparation of the membrane vesicles, the frozen intestines were thawed at 30° C. in a water-bath. The mucosa was scraped off and suspended in 60 ml of ice-cold 12 mMTris/HCl buffer (pH 7.1)/300 mM mannitol, 5 mM EGTA/10 mg/l of phenylmethyl-sulfonyl fluoride/1 mg/l of trypsin inhibitor from soybean (32 U/mg)/0.5 mg/l of trypsin inhibitor from bovine lung (193 U/mg)/5 mg/l bacitracin. After dilution to 300 ml with ice-cold distilled water, the mixture was homogenized with an Ultraturrax (18-rod, IKA Werk Stuafen, FRG) for 3 minutes at 75% of the maximum power, while cooling with ice. After addition of 3 ml of 1M MgCl2 solution (final concentration 10 mM), the mixture was left to stand for exactly 1 minute at 0° C. By addition of Mg^2+, the cell membranes aggregate and precipitate, with the exception of the brush border membranes. After centrifugation at 3000×g (5000 rpm, SS-34 rotor) for 15 minutes, the precipitate is discarded and the supernatant, which contains the brush border membranes, is centrifuged at […] (15,000 rpm, SS-34 rotor) for 30 minutes. The supernatant was discarded and the precipitate was rehomogenized in 60 ml of 12 mMTris/HCl buffer (pH 7.1)/60 mM mannitol, 5 mM EGTA using a Potter Elvejhem homogenizer (Braun, Melsungen, 900 rpm, 10 strokes). After addition of 0.1 ml of 1M MgCl2 solution and an incubation time of 15 minutes at 0° C., the mixture was centrifuged again at 3000×g for 15 minutes. The supernatant was then centrifuged again at 46,000×g (15,000 rpm, SS-34 rotor) for 30 minutes. The precipitate was taken up in 30 ml of 10 mM Tris/Hepes buffer (pH 7.4)/300 mM mannitol and resuspended homogeneously by 20 strokes in a Potter Elvejhem homogenizer at 1000 rpm. After centrifugation at 48,000×g (20,000 rpm, SS-34 rotor) for 30 minutes, the precipitate was taken up in 0.5 to 2 ml of Tris/Hepes buffer (pH 7.4)/280 mM mannitol (final concentration 20 mg/ml) and resuspended with the aid of a tuberculin syringe with a 27 gauge needle. The vesicles were either used for transportation studies immediately after preparation, or stored at -196° C. in 4 mg portions in liquid nitrogen.
# 2. Inhibition of the Na^+ -dependent ^3 H!-taurocholate uptake in brush border membrane vesicles of the ileum
# The uptake of substrates in the brush border membrane vesicles described above was determined by means of the so-called membrane filtration technique. 10 μl of the vesicle suspension (100 μg of protein) were pipetted as drops onto the wall of a polystyrene incubation tube (11×70 mm) which contained the incubation medium with the corresponding ligands (90 μl). […]
row,SMILES,quotient of the IC50Na values of the reference substance taurochenodeoxycholate (TCDC) and the test substance
1,C[C@H](CCC(=O)O)[C@H]1CC[C@H]2[C@@H]3[C@H](O)C[C@@H]4C[C@@H](OCCOCCNC(=O)[C@@H](C)[C@H]5CC[C@H]6[C@@H]7[C@H](O)C[C@@H]8C[C@H](O)CC[C@]8(C)[C@H]7C[C@H](O)[C@]56C)CC[C@]4(C)[C@H]3C[C@H](O)[C@]12C [Example 41],0.58
2,C[C@H](CCC(=O)NCC(=O)O)[C@H]1CC[C@H]2[C@@H]3[C@H](O)C[C@@H]4C[C@@H](OCCOCCNC(=O)C[C@@H](C)[C@H]5CC[C@H]6[C@@H]7[C@H](O)C[C@@H]8C[C@H](O)CC[C@]8(C)[C@H]7C[C@H](O)[C@]56C)CC[C@]4(C)[C@H]3C[C@H](O)[C@]12C [Example 57],0.34
3,C[C@H](CC(=O)O)[C@H]1CC[C@H]2[C@@H]3[C@H](O)C[C@@H]4C[C@@H](NC(=O)[C@@H](C)[C@H]5CC[C@H]6[C@@H]7[C@H](O)C[C@@H]8C[C@H](O)CC[C@]8(C)[C@H]7C[C@H](O)[C@]56C)CC[C@]4(C)[C@H]3C[C@H](O)[C@]12C [Example 69],0.86
4,C[C@H](CCC(=O)O)[C@H]1CC[C@H]2[C@@H]3[C@H](O)C[C@@H]4C[C@@H](NC(=O)C[C@@H](C)[C@H]5CC[C@H]6[C@@H]7[C@H](O)C[C@@H]8C[C@H](O)CC[C@]8(C)[C@H]7C[C@H](O)[C@]56C)CC[C@]4(C)[C@H]3CC[C@]12C [Example 36],1.14
5,C[C@H](CCC(=O)O)[C@H]1CC[C@H]2[C@@H]3[C@H](O)C[C@@H]4C[C@@H](NC(=O)C[C@@H](C)[C@H]5CC[C@H]6[C@@H]7[C@H](O)C[C@@H]8C[C@H](O)CC[C@]8(C)[C@H]7C[C@H](O)[C@]56C)CC[C@]4(C)[C@H]3C[C@H](O)[C@]12C [Example 32],0.65
6,C[C@H](CCC(=O)N[C@H]1CC[C@@]2(C)[C@@H](C1)C[C@@H](O)[C@@H]1[C@@H]2C[C@H](O)[C@]2(C)[C@@H]([C@H](C)CC(=O)O)CC[C@@H]12)[C@H]1CC[C@H]2[C@@H]3[C@H](O)C[C@@H]4C[C@H](O)CC[C@]4(C)[C@H]3CC[C@]12C [Example 65],0.64
7,CC(C(=O)N[C@H]1CC[C@@]2(C)[C@@H](C1)C[C@@H](O)[C@@H]1[C@@H]2CC[C@]2(C)[C@@H]([C@H](C)CCC(=O)O)CC[C@@H]12)[C@H]1CC[C@H]2[C@@H]3[C@H](O)C[C@@H]4C[C@H](O)CC[C@]4(C)[C@H]3C[C@H](O)[C@]12C (stereo partly shown) [Example 43],0.78
